Measurements taken from patent US8076487B2, “Pyridone derivative and herbicide” (Kumiai Chemical Industry Co., Ltd., priority 2006, dated 2011).

Columns and labels:
Assay type in all cases: in vivo
[1] = tested on: early watergrass (Echinochloa oryzicola Vasing); assay: Test Example 1: herbicidal effect by soil application to paddy field; conditions: paddy field soil application; active ingredient 1,000 g per 1 hectare; wettable powder added dropwise to water surface the day after sowing; examined on the 21st day after application
In short: (§1)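 Plants were sown in flooded (3 cm) paddy soil and evaluated for herbicidal effect 21 days after soil application in a greenhouse.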

[2] = tested on: heartshape false pickerelweed (Monochoria vaginalis (Burm.f.) C.Presl); assay: as above; conditions: paddy field soil application; active ingredient 1,000 g per 1 hectare; wettable powder added dropwise to water surface the day after sowing; examined on the 21st day after application
In short: as §1

[3] = tested on: Japanese bulrush (Scirpus juncoides Roxb.); assay: as above; conditions: paddy field soil application; active ingredient 1,000 g per 1 hectare; wettable powder added dropwise to water surface the day after sowing; examined on the 21st day after application
In short: as §1

[4] = tested on: slender amaranth (Amaranthus viridis L.); assay: Test Example 3: herbicidal effect by application to upland field (foliage treatment); conditions: 14th day after application; for herbicidal effect, Slender Amaranth: foliage treatment, 1,000 g active ingredient per 1 hectare, greenhouse; for herbicidal effect (index), Slender Amaranth: foliage treatment, plants grown two weeks, 1,000 g active ingredient per hectare
In short: (§2)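 Plants were sown in field soil and raised in a greenhouse for two weeks before foliar spraying. A water-diluted wettable powder was applied at 1,000 g active ingredient per hectare in 1,000 liters per hectare. Herbicidal effect was scored on a standard scale 14 days later.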

[5] = tested on: velvetleaf (Abutilon theophrasti medicus); assay: as above; conditions: 14th day after application; for herbicidal effect, Velvetleaf: foliage treatment, 1,000 g active ingredient per 1 hectare, greenhouse; for herbicidal effect (index), Velvetleaf: foliage treatment, plants grown two weeks, 1,000 g active ingredient per hectare
In short: as §2

[6] = tested on: green foxtail (Setaria viridis (L.) P. Beauv.); assay: as above; conditions: 14th day after application; for herbicidal effect, Green Foxtail: foliage treatment, 1,000 g active ingredient per 1 hectare, greenhouse; for herbicidal effect (index), Green Foxtail: foliage treatment, plants grown two weeks, 1,000 g active ingredient per hectare
In short: as §2

[7] = tested on: barnyardgrass (Echinochloa crus-galli (L.) P. Beauv. var. crus-galli); assay: as above; conditions: 14th day after application; for herbicidal effect, Barnyardgrass: foliage treatment, 1,000 g active ingredient per 1 hectare, greenhouse; for herbicidal effect (index), Barnyardgrass: foliage treatment, plants grown two weeks, 1,000 g active ingredient per hectare
In short: as §2

SMILES	herbicidal effect, Echinochloa oryzicola Vasing [1]	herbicidal effect, Monochoria vaginalis (Burm. f.) C. Presl [2]	herbicidal effect, Scirpus juncoides Roxb. [3]	herbicidal effect, Slender Amaranth [4]	herbicidal effect, Velvetleaf [5]	herbicidal effect, Green Foxtail [6]	herbicidal effect, Barnyardgrass [7]	herbicidal effect (index), Slender Amaranth [4]	herbicidal effect (index), Velvetleaf [5]	herbicidal effect (index), Green Foxtail [6]	herbicidal effect (index), Barnyardgrass [7]
CCCS(=O)(=O)Oc1c(C(=O)c2ccc(C(F)(F)F)n(-c3ccc4c(c3)OCO4)c2=O)cnn1C(C)C [IV-100]	5 (90% or more of herbicidal effect and crop phytotoxicity)	5 (90% or more of herbicidal effect and crop phytotoxicity)	5 (90% or more of herbicidal effect and crop phytotoxicity)	4 (70 to less than 90% of herbicidal effect and crop phytotoxicity)	5 (90% or more of herbicidal effect and crop phytotoxicity)	5 (90% or more of herbicidal effect and crop phytotoxicity)	5 (90% or more of herbicidal effect and crop phytotoxicity)	–	–	–	–
O=C1CCCC(O)=C1C(=O)c1ccc(C(F)(F)F)n(Cc2cccc([N+](=O)[O-])c2)c1=O [I-116]	5 (90% or more of herbicidal effect and crop phytotoxicity)	5 (90% or more of herbicidal effect and crop phytotoxicity)	5 (90% or more of herbicidal effect and crop phytotoxicity)	5 (90% or more of herbicidal effect and crop phytotoxicity)	5 (90% or more of herbicidal effect and crop phytotoxicity)	3 (50 to less than 70% of herbicidal effect and crop phytotoxicity)	5 (90% or more of herbicidal effect and crop phytotoxicity)	–	–	–	–
COCCCn1c(C(F)(F)F)ccc(C(=O)C2=C(O)CCCC2=O)c1=O [I-42]	5 (90% or more of herbicidal effect and crop phytotoxicity)	5 (90% or more of herbicidal effect and crop phytotoxicity)	5 (90% or more of herbicidal effect and crop phytotoxicity)	–	–	–	–	5 (90% or more of herbicidal effect and crop phytotoxicity)	5 (90% or more of herbicidal effect and crop phytotoxicity)	5 (90% or more of herbicidal effect and crop phytotoxicity)	5 (90% or more of herbicidal effect and crop phytotoxicity)
Cc1ccc(C(=O)COc2c(C(=O)c3ccc(C(F)(F)F)n(CC4CCCO4)c3=O)cnn2C)cc1 (centres unmarked) [IV-139]	5 (90% or more of herbicidal effect and crop phytotoxicity)	5 (90% or more of herbicidal effect and crop phytotoxicity)	5 (90% or more of herbicidal effect and crop phytotoxicity)	5 (90% or more of herbicidal effect and crop phytotoxicity)	5 (90% or more of herbicidal effect and crop phytotoxicity)	4 (70 to less than 90% of herbicidal effect and crop phytotoxicity)	5 (90% or more of herbicidal effect and crop phytotoxicity)	–	–	–	–
O=C1CCCC(O)=C1C(=O)c1ccc(C(F)(F)F)n(-c2c(F)cccc2F)c1=O [I-104]	5 (90% or more of herbicidal effect and crop phytotoxicity)	5 (90% or more of herbicidal effect and crop phytotoxicity)	5 (90% or more of herbicidal effect and crop phytotoxicity)	–	–	–	–	5 (90% or more of herbicidal effect and crop phytotoxicity)	5 (90% or more of herbicidal effect and crop phytotoxicity)	4 (70 to less than 90% of herbicidal effect and crop phytotoxicity)	5 (90% or more of herbicidal effect and crop phytotoxicity)
